“Also recorded” adds a separate entry of the source. Read-outs that look alike come from different tables or passages of the source.

Data set [1] concerns GiPCR signaling. The experiment in a line: CDS (CellKey) functional evaluation of Gi protein-mediated receptor signaling in primary mouse osteoblasts. In kind it is cell-based, mice.
The subject of data set [2] is Gi1, Gi2, Gi3 proteins. The experiment in a line: Immunoprecipitation/Western blot: phosphorylation of Gi proteins in MC3T3-E1 cells. It is filed as cell-based. The following applies: MC3T3-E1 treated with rOPN in presence of kinase inhibitor. The procedure:
Given that the defective GiPCR signaling associated with idiopathic scoliosis has causatively been related to increased phosphorylation of Gi proteins (Moreau et al., 2004), it was of interest to examined whether OPN influences the phosphorylation status of Gi proteins. Accordingly, MC3T3-E1 cells were treated with rOPN, then cell lysates were immunoprecipitated with antibodies against Gi1, Gi2 or Gi3 protein isoforms, and the phosphorylation level was examined by Western blot using anti-phospho serine/threonine or anti-tyrosine antibodies. […] However, band density was higher in OPN-treated cells.
To support the involvement of α5β1 integrin in this process, cells were pre-treated with antibody against α5β1 integrin prior to rOPN treatment.
Cell extracts prepared from MC3T3-E1 that had been treated with rOPN in the presence or absence of an inhibitor specific for each kinase were subjected to immunoprecipitation and Western blot analysis. […] However, both serine and tyrosine phosphorylation were attenuated by inhibitors of FAK (FAK inhibitor-14), Scr (PP2), CaMKII (KN93), PI3K (wortmannin-data not shown), MEK (PD98059), ERK1/2 (FR180204), JNK (SP60125) and P38 (SB203580).

In data set [3] the test system is GsPCR signaling. Nature of the data set: CDS response to GsPCR stimulation (isoproterenol, desmopressin) in MC3T3-E1 cells. It is filed as cell-based. The following applies: rOPN in combination with Src inhibitor; isoproterenol, similar with desmopressin. From the text:
Taken into account these considerations and having observed that genetic deletion of OPN inversely influenced response to Gi and Gs stimulation (FIG. 1), it was of interest to examine the effect of OPN on the functional and phosphorylation status of Gs protein and on its interaction with receptors. For this purpose, cells were subjected to isoproterenol and desmopressin in the presence of rOPN or PBS. As expected, response to isoproterenol was higher in rOPN than in PBS-treated cells.
Assuming that inhibition of Gi protein and phosphorylation of Gs protein are responsible for the increased GsPCR signaling associated with rOPN, the next experiments aimed to determine the contribution of each parameter. For this purpose, cells were treated with PTX to mimic disruption action of rOPN and compared to cells treated with rOPN alone or in combination with Src inhibitor (PP2) to prevent tyrosine phosphorylation. […] This modest difference was abolished by Src inhibitor (PP2). Similar observations were noted when cells were stimulated with desmopressin.

Data set [4] concerns GiPCR signaling. The experiment in a line: CDS integrated response to GiPCR ligands in MC3T3-E1 osteoblastic cell line. It is filed as cell-based. The following applies: for response in the presence of rOPN after siRNA transfection: MC3T3-E1, compared with untreated cells. The protocol: The functional evaluation of Gi, Gs and Gq proteins was assessed by CDS assays using osteoblasts cells derived from C57Bl/6j WT and C57Bl/6j OPN^−/− mice (bipedal and quadrupedal) using CellKey™ apparatus, as previously described (Akoume et al., 2010, and WO 2010/040234 to Moreau et al.).
MC3T3-E1 cells were used to check the effect of the knockdown of OPN and its receptors. MC3T3-E1 osteoblasts cells were transiently transfected in serum-free medium, using Lipofectamine™ RNAiMAX reagent (Invitrogen) according to the manufacturer's instructions and functional experiments were performed 48 h post transfection. The sequence of RNA oligonucleotides used for the knockdown of different genes are, ssp1 (encodes OPN) (CCACAGCCACAAGCAGUCCAGAUUA (SEQ ID NO: 9)), integrin β1 (CCUAAGUCAGCAGUAGGAACAUUAU (SEQ ID NO: 10)), integrin β3 (CCUCCAGCUCAUUGUUGAUGCUUAU (SEQ ID NO: 11)), integrin α5 (CCGAGUACCUGAUCAACCUGGUUCA (SEQ ID NO: 12)), integrin α8 (GAGAUGAAACUGAAUUCCGAGAUAA (SEQ ID NO: 13)), integrin αv (GACUGUUGAGUAUGCUCCAUGUAGA (SEQ ID NO: 14 and CD44 (GAACAAGGAGUCGUCAGAAACUCCA (SEQ ID NO: 15)). Two other siRNAs against integrin α5 were tested (UCCACCAUGUCUAUGAGCUCAUCAA (SEQ ID NO:16) and UCAGGAGCAGAUUGCAGAAUCUUAU (SEQ ID NO:17)).
To further investigate the role of OPN in Gi protein-mediated receptor signaling, several lines of experiments were performed using MC3T3-E1 osteoblastic cell line. Since these cells express OPN, was first examined whether depletion of OPN by siRNA influences the capacity of GiPCR ligands to induce cell signaling as measured by CDS in MC3T3-E1 cells. […] Similar results were obtained when cells were stimulated with oxymethazolin. […] To confirm this hypothesis, cells were treated with exogenous recombinant OPN (rOPN) prior to DAMGO and oxymethazolin stimulation.

In data set [5] the target is RGD-dependent integrins expressed in osteoblasts. The experiment in a line: cell-based or functional assay.
Where [6] appears, read: osteoblasts from WT and OPN-/- mice, increasing agonist concentration.

Take `C[C@@H](NC(=O)[C@@H](N)Cc1ccc(O)cc1)C(=O)NCC(=O)N(C)[C@@H](Cc1ccccc1)C(=O)NCCO` [DAMGO]: in data set [1] (setting [6]), the “response to GiPCR agonist” value was “concentration-dependent increase of response”. Take `Nc1cc(N)c(N)cc1N` [FAK inhibitor-14]: in data set [2], the “level of serine phosphorylation in the Gi protein precipitates” value (from here on “level of serine phosphorylation”) is reported as “attenuated” and the “tyrosine phosphorylation levels in the Gi protein precipitates” value (from here on “tyrosine phosphorylation levels”) is given as “attenuated”. On to `Nc1[nH]nc2nnc(-c3c(-c4ccccc4)nn4ccccc34)cc12` [FR180204], for which, in data set [2], the “level of serine phosphorylation” value was “attenuated” and the “tyrosine phosphorylation levels” value is listed as “attenuated”. Take `COc1ccc2c(c1)c(C1=C(c3c[nH]c4ccccc34)C(=O)NC1=O)cn2CCCN(C)C` [Gö6983]: in data set [2], the “level of serine phosphorylation” value is given as “attenuated” and the “tyrosine phosphorylation levels” value is recorded as “without effect”. `COc1ccc(S(=O)(=O)N(CCO)c2ccccc2CN(C)C/C=C/c2ccc(Cl)cc2)cc1` [KN93]: in data set [2], the “level of serine phosphorylation” value is recorded as “attenuated” and the “tyrosine phosphorylation levels” value is reported as “attenuated”. `COc1cccc(-c2cc(=O)c3ccccc3o2)c1N` [PD98059]: in data set [2], the “level of serine phosphorylation” value is given as “attenuated” and the “tyrosine phosphorylation levels” value is recorded as “attenuated”. On to `CC(C)(C)n1nc(-c2ccc(Cl)cc2)c2c(N)ncnc21` [PP2], for which, in data set [2], the “level of serine phosphorylation” value is on record as “attenuated” and the “tyrosine phosphorylation levels” value is “attenuated”. Further, in data set [3], the “difference in response between rOPN-treated and PTX-treated cells” value is given as “abolished”. Regarding `C[S+]([O-])c1ccc(-c2nc(-c3ccncc3)c(-c3ccc(F)cc3)[nH]2)cc1` (centres unmarked) [SB203580], in data set [2], the “level of serine phosphorylation” value was “attenuated” and the “tyrosine phosphorylation levels” value was “attenuated”. As for `O=C1c2ccccc2-c2n[nH]c3cccc1c23` [SP60125], in data set [2], the “level of serine phosphorylation” value is given as “attenuated” and the “tyrosine phosphorylation levels” value was “attenuated”. With `Cc1cc(C(C)(C)C)c(O)c(C)c1CC1=NCCN1` [oxymethazolin], the “response to GiPCR agonist” value in data set [1] (setting [6]) is “concentration-dependent increase of response”.

For the compound “CD44 siRNA: siRNA for knockdown of CD44: GAACAAGGAGUCGUCAGAAACUCCA (guide GAACAAGGAGUCGUCAGAAACUCCA; listed as RNA, chemistry not given here)”, in data set [4] (MC3T3-E1 cells, rOPN present), the “effect on the inhibitory effect of rOPN on response to DAMGO and oxymethazolin” value is on record as “did not prevent; also recorded: further aggravated the defect”. Consider “OPN siRNA: siRNA for knockdown of ssp1 (encodes OPN): CCACAGCCACAAGCAGUCCAGAUUA”, for which, in data set [4] (MC3T3-E1 cells, endogenous OPN depleted or blocked, no exogenous rOPN), the “integrated response to DAMGO and oxymethazolin” value is given as “significantly greater”.

On to RGD peptide, for which the RGD concentration reversing the inhibitory effect of OPN on response to DAMGO and oxymethazolin (CDS) in data set [5] was greater than 10 µg/mL.

On to apelin, for which the “response to GiPCR agonist” value in data set [1] is recorded as “concentration-dependent increase of response”. In the case of hyaluronic acid [HA], the “sensitivity of GiPCR signaling to CD44 inhibition” value in data set [1] (CD44-/- osteoblasts) was “does not show any sensitivity”. In addition, the GiPCR signaling defects result in data set [1] (wild type osteoblasts, compared to the control) is “exacerbated”. In addition, the “GiPCR signaling defect / inhibitory effect of OPN when CD44 is inhibited” value in data set [1] (wild type osteoblasts, in presence of rOPN) is reported as “intensified; also recorded: exacerbate the signaling defect”. Turning to pertussis toxin [PTX], the “cellular responses to each of the four tested agonists after PTX pre-treatment” value in data set [1] (osteoblasts from WT and OPN-/- mice, DAMGO, somatostatin, oxymethazolin, apelin) is given as “largely reduced”. As to “α5 siRNA: siRNA against integrin α5: CCGAGUACCUGAUCAACCUGGUUCA; two others (SEQ ID NO:16, 17) also tested (guide CCGAGUACCUGAUCAACCUGGUUCA; listed as RNA, chemistry not given here)”, the “response in the presence of rOPN after siRNA transfection” value in data set [4] is “high response”. Take “β1 siRNA: siRNA against integrin β1: CCUAAGUCAGCAGUAGGAACAUUAU (guide CCUAAGUCAGCAGUAGGAACAUUAU; listed as RNA, chemistry not given here)”: the “response in the presence of rOPN after siRNA transfection” value in data set [4] is on record as “high response”.
